According to PMC5218480 (PLoS ONE, 2017):

Test system: MV-4-11 cells
Assay: Gene expression microarray analysis (Affymetrix PrimeView) and GSEA
Type: cell-based, human
Set-up: RFU PODN (11730768_x_at) / Fold change /veh PODN (11730768_x_at) / RFU LINC00158 (11744669_a_at) / Fold change /veh LINC00158 (11744669_a_at) / RFU DUSP10 (11751237_a_at) / Fold change /veh DUSP10 (11751237_a_at) / RFU ID3 (11757404_x_at) / Fold change /veh ID3 (11757404_x_at) / RFU PLEKHG5 (11737974_s_at) / Fold change /veh PLEKHG5 (11737974_s_at) / RFU LRRC4B (11730491_at) / Fold change /veh LRRC4B (11730491_at) / RFU GIMAP4 (11747438_a_at) / Fold change /veh GIMAP4 (11747438_a_at) / RFU KRT8 (11758183_x_at) / Fold change /veh KRT8 (11758183_x_at) / RFU CNN1 (11734310_a_at) / Fold change /veh CNN1 (11734310_a_at) / RFU VPS37D (11726825_at) / Fold change /veh VPS37D (11726825_at) / RFU C10orf10 (11716522_x_at) / Fold change /veh C10orf10 (11716522_x_at) / RFU KIR2DL2 /// KIR2DL4 /// KIR2DL5A /// KIR2DL5B /// KIR2DS1 /// KIR2DS2 /// KIR2DS3 /// KIR2DS4 /// KIR3DL3 /// KIR3DL3 /// KIR3DS1 (11738374_at) / Fold change /veh KIR2DL2 /// KIR2DL4 /// KIR2DL5A /// KIR2DL5B /// KIR2DS1 /// KIR2DS2 /// KIR2DS3 /// KIR2DS4 /// KIR3DL3 /// KIR3DL3 /// KIR3DS1 (11738374_at) / RFU C1QL1 (11718748_at) / Fold change /veh C1QL1 (11718748_at) / RFU TMPRSS4 (11747572_a_at) / Fold change /veh TMPRSS4 (11747572_a_at) / RFU HAMP (11756126_x_at) / Fold change /veh HAMP (11756126_x_at) / RFU RNFT2 (11725882_a_at) / Fold change /veh RNFT2 (11725882_a_at) / RFU NR4A2 (11747474_a_at) / Fold change /veh NR4A2 (11747474_a_at) / RFU ABCC12 (11746883_a_at) / Fold change /veh ABCC12 (11746883_a_at) / RFU TMEM136 (11760407_x_at) / Fold change /veh TMEM136 (11760407_x_at) / RFU CLDN22 /// WWC2 (11732394_at) / Fold change /veh CLDN22 /// WWC2 (11732394_at) / RFU HLA-DPB1 (11760878_x_at) / Fold change /veh HLA-DPB1 (11760878_x_at) / RFU SPINT1 (11716480_a_at) / Fold change /veh SPINT1 (11716480_a_at) / RFU GAP43 (11754022_s_at) / Fold change /veh GAP43 (11754022_s_at) / RFU A4GNT (11735810_at) / Fold change /veh A4GNT (11735810_at) / RFU PRB3 (11715151_x_at) / Fold change /veh PRB3 (11715151_x_at) / RFU TUBB4B (11761932_at) / Fold change /veh TUBB4B (11761932_at) / RFU CAPN14 (11732068_a_at) / Fold change /veh CAPN14 (11732068_a_at) / RFU TMCC2 (11721928_a_at) / Fold change /veh TMCC2 (11721928_a_at) / RFU IRGQ (11745062_a_at) / Fold change /veh IRGQ (11745062_a_at) / RFU FAM174B (11720279_a_at) / Fold change /veh FAM174B (11720279_a_at) / RFU TMPRSS4 (11748680_a_at) / Fold change /veh TMPRSS4 (11748680_a_at) / RFU FAM212B (11763350_a_at) / Fold change /veh FAM212B (11763350_a_at) / RFU PLEKHG5 (11743358_a_at) / Fold change /veh PLEKHG5 (11743358_a_at) / RFU ZSCAN30 (11745921_a_at) / Fold change /veh ZSCAN30 (11745921_a_at) / RFU CMKLR1 (11741424_a_at) / Fold change /veh CMKLR1 (11741424_a_at) / RFU LOC101060620 /// MAPK8IP1 (11723275_at) / Fold change /veh LOC101060620 /// MAPK8IP1 (11723275_at) / RFU SPTSSB (11747773_x_at) / Fold change /veh SPTSSB (11747773_x_at) / RFU PRSS12 (11739890_at) / Fold change /veh PRSS12 (11739890_at) / RFU BIN1 (11741810_x_at) / Fold change /veh BIN1 (11741810_x_at) / RFU WNT11 (11732464_a_at) / Fold change /veh WNT11 (11732464_a_at) / RFU C10orf10 (11716521_a_at) / Fold change /veh C10orf10 (11716521_a_at) / RFU C5orf56 (11738089_at) / Fold change /veh C5orf56 (11738089_at) / RFU CYB561 (11721691_x_at) / Fold change /veh CYB561 (11721691_x_at) / RFU ANKRD19P (11752326_a_at) / Fold change /veh ANKRD19P (11752326_a_at) / RFU OR2T12 /// OR2T33 /// OR2T8 (11738714_s_at) / Fold change /veh OR2T12 /// OR2T33 /// OR2T8 (11738714_s_at) / RFU VCAN (11748164_a_at) / Fold change /veh VCAN (11748164_a_at) / RFU JSRP1 (11732532_at) / Fold change /veh JSRP1 (11732532_at) / RFU KRTAP10-11 (11738290_x_at) / Fold change /veh KRTAP10-11 (11738290_x_at) / RFU MYO3A (11730013_a_at) / Fold change /veh MYO3A (11730013_a_at) / RFU EBF3 (11725865_a_at) / Fold change /veh EBF3 (11725865_a_at) / RFU CAMK2N1 (11719241_x_at) / Fold change /veh CAMK2N1 (11719241_x_at) / RFU C5orf56 (11738088_a_at) / Fold change /veh C5orf56 (11738088_a_at) / RFU OLFML3 (11715873_a_at) / Fold change /veh OLFML3 (11715873_a_at) / RFU LOC100653217 /// NTM (11731650_a_at) / Fold change /veh LOC100653217 /// NTM (11731650_a_at) / RFU MAPK11 (11762145_a_at) / Fold change /veh MAPK11 (11762145_a_at) / RFU FIZ1 (11724087_x_at) / Fold change /veh FIZ1 (11724087_x_at) / RFU OASL (11726364_x_at) / Fold change /veh OASL (11726364_x_at) / RFU SOX15 (11748057_x_at) / Fold change /veh SOX15 (11748057_x_at) / RFU CD79A (11719716_a_at) / Fold change /veh CD79A (11719716_a_at) / RFU HIST1H1D (11736915_at) / Fold change /veh HIST1H1D (11736915_at) / RFU CASKIN2 (11723855_a_at) / Fold change /veh CASKIN2 (11723855_a_at) / RFU LOC730098 (11760151_x_at) / Fold change /veh LOC730098 (11760151_x_at) / RFU OR4N2 (11742367_at) / Fold change /veh OR4N2 (11742367_at) / RFU PRRT2 (11749266_a_at) / Fold change /veh PRRT2 (11749266_a_at) / RFU SNX32 (11753110_a_at) / Fold change /veh SNX32 (11753110_a_at) / RFU CDHR5 (11726645_a_at) / Fold change /veh CDHR5 (11726645_a_at) / RFU RCAN1 (11760418_a_at) / Fold change /veh RCAN1 (11760418_a_at) / RFU FAM167A (11723789_a_at) / Fold change /veh FAM167A (11723789_a_at) / RFU FAM26E (11764081_at) / Fold change /veh FAM26E (11764081_at) / RFU ISYNA1 (11749810_s_at) / Fold change /veh ISYNA1 (11749810_s_at) / RFU ACY1 (11761880_at) / Fold change /veh ACY1 (11761880_at) / RFU 11764098_at / Fold change /veh 11764098_at / RFU SAMD14 (11745864_x_at) / Fold change /veh SAMD14 (11745864_x_at) / RFU NPB (11741838_a_at) / Fold change /veh NPB (11741838_a_at) / RFU TMPRSS6 (11731388_a_at) / Fold change /veh TMPRSS6 (11731388_a_at) / RFU KRTAP10-2 (11738614_at) / Fold change /veh KRTAP10-2 (11738614_at) / RFU ARHGAP8 /// PRR5-ARHGAP8 (11727945_x_at) / Fold change /veh ARHGAP8 /// PRR5-ARHGAP8 (11727945_x_at) / RFU KRTAP5-7 /// NADSYN1 (11734609_at) / Fold change /veh KRTAP5-7 /// NADSYN1 (11734609_at) / RFU RASL12 (11751679_a_at) / Fold change /veh RASL12 (11751679_a_at) / RFU CDKN2B (11736163_a_at) / Fold change /veh CDKN2B (11736163_a_at) / RFU PRF1 (11729649_at) / Fold change /veh PRF1 (11729649_at) / RFU, ZNF638 /// ZNF638-IT1 / Fold change vs veh, ZNF638 /// ZNF638-IT1 / RFU, PANK3 / Fold change vs veh, PANK3 / RFU, SH3YL1 / Fold change vs veh, SH3YL1 / RFU, ZEB2 / Fold change vs veh, ZEB2 / RFU, NRIP1 / Fold change vs veh, NRIP1 / RFU, PTTG1IP / Fold change vs veh, PTTG1IP / RFU, CAPN2 / Fold change vs veh, CAPN2 / RFU, MED14 / Fold change vs veh, MED14 / RFU, SNORA58 / Fold change vs veh, SNORA58 / RFU, C1orf63 / Fold change vs veh, C1orf63 / RFU, LRRFIP1 / Fold change vs veh, LRRFIP1 / RFU, NDUFAF7 / Fold change vs veh, NDUFAF7 / RFU, SLC12A2 / Fold change vs veh, SLC12A2 / RFU, IBTK / Fold change vs veh, IBTK / RFU, ESF1 / Fold change vs veh, ESF1 / Fold change vs veh, TMEM50B / RFU, TAOK1 / Fold change vs veh, TAOK1 / RFU, ACBD3 / Fold change vs veh, ACBD3 / RFU, TMA16 / Fold change vs veh, TMA16 / RFU, RWDD3 / Fold change vs veh, RWDD3 / RFU, BCAT1 / Fold change vs veh, BCAT1 / RFU, EDEM3 / Fold change vs veh, EDEM3 / RFU, TMEM33 / Fold change vs veh, TMEM33 / RFU, WDR75 / Fold change vs veh, WDR75 / RFU, AHCTF1 / Fold change vs veh, AHCTF1 / RFU, TFRC / Fold change vs veh, TFRC / RFU, ZDHHC17 / Fold change vs veh, ZDHHC17 / RFU, NOM1 / Fold change vs veh, NOM1 / RFU, ARL8B / Fold change vs veh, ARL8B / RFU, ZBTB11 / Fold change vs veh, ZBTB11 / RFU, TAMM41 / Fold change vs veh, TAMM41 / RFU, KIAA1704 /// LOC100996395 / Fold change vs veh, KIAA1704 /// LOC100996395 / RFU, ING1 / Fold change vs veh, ING1 / RFU, TRMT61B / Fold change vs veh, TRMT61B / RFU, FUBP3 / Fold change vs veh, FUBP3 / RFU, TP53 / Fold change vs veh, TP53 / RFU, TNKS2 / Fold change vs veh, TNKS2 / RFU, ZFP14 / Fold change vs veh, ZFP14 / RFU, ACTR2 / Fold change vs veh, ACTR2 / RFU, PPP3R1 / Fold change vs veh, PPP3R1 / RFU, PIK3R1 / Fold change vs veh, PIK3R1 / RFU, HNRNPA1 / Fold change vs veh, HNRNPA1 / RFU, RNF170 / Fold change vs veh, RNF170 / RFU, ZNF28 / Fold change vs veh, ZNF28 / RFU, RNGTT / Fold change vs veh, RNGTT / RFU, OGT / Fold change vs veh, OGT / RFU, BRD1 / Fold change vs veh, BRD1 / RFU, MARS / Fold change vs veh, MARS / RFU, ZNF655 / Fold change vs veh, ZNF655 / RFU, FAHD1 / Fold change vs veh, FAHD1 / RFU, BDP1 / Fold change vs veh, BDP1 / RFU, LRRCC1 / Fold change vs veh, LRRCC1 / RFU, ARID1A / Fold change vs veh, ARID1A / RFU, ZNF146 / Fold change vs veh, ZNF146 / RFU, ZNF330 / Fold change vs veh, ZNF330 / RFU, GPN3 / Fold change vs veh, GPN3 / RFU, C9orf123 / Fold change vs veh, C9orf123 / RFU, N4BP2L2 / Fold change vs veh, N4BP2L2 / RFU, ARFIP1 / Fold change vs veh, ARFIP1 / RFU, FAM179B / Fold change vs veh, FAM179B / RFU, BCL10 / Fold change vs veh, BCL10 / RFU, UHRF1BP1L / Fold change vs veh, UHRF1BP1L / RFU, BET1 / Fold change vs veh, BET1 / RFU, CNOT2 / Fold change vs veh, CNOT2 / RFU, ZNF268 / Fold change vs veh, ZNF268 / Fold change vs veh, ZNF507 / RFU, DGCR2 / Fold change vs veh, DGCR2 / RFU, WDSUB1 / Fold change vs veh, WDSUB1 / Fold change vs veh, HSP90B1 /// MIR3652 / RFU, ADSS / Fold change vs veh, ADSS / RFU, GK / Fold change vs veh, GK / RFU, ZNF148 / Fold change vs veh, ZNF148 / RFU, TAF9 / Fold change vs veh, TAF9 / RFU, SLC1A5 / Fold change vs veh, SLC1A5 / RFU, SLMO2 / Fold change vs veh, SLMO2 / RFU, ABCC4 / Fold change vs veh, ABCC4 / RFU, LOC101060439 /// RAP1B / Fold change vs veh, LOC101060439 /// RAP1B / RFU, RFX7 / Fold change vs veh, RFX7 / RFU, GTPBP10 / Fold change vs veh, GTPBP10 / RFU, CNEP1R1 / Fold change vs veh, CNEP1R1 / RFU, BIVM-ERCC5 /// ERCC5 / Fold change vs veh, BIVM-ERCC5 /// ERCC5 / RFU, ILF3 / Fold change vs veh, ILF3 / RFU 11762660_at / Fold change /veh 11762660_at / RFU VCAN (11757783_s_at) / Fold change /veh VCAN (11757783_s_at) / RFU DDX43 (11728927_at) / Fold change /veh DDX43 (11728927_at) / RFU KRT8 (11758188_x_at) / Fold change /veh KRT8 (11758188_x_at) / RFU NKD1 (11759106_at) / Fold change /veh NKD1 (11759106_at) / RFU SRD5A1 (11742802_a_at) / Fold change /veh SRD5A1 (11742802_a_at) / RFU TPSAB1 /// TPSB2 (11721975_s_at) / Fold change /veh TPSAB1 /// TPSB2 (11721975_s_at) / RFU GSTM3 (11746129_a_at) / Fold change /veh GSTM3 (11746129_a_at) / RFU IL23R (11737362_x_at) / Fold change /veh IL23R (11737362_x_at) / RFU TMEM51 (11727254_a_at) / Fold change /veh TMEM51 (11727254_a_at) / RFU PIWIL2 (11732686_x_at) / Fold change /veh PIWIL2 (11732686_x_at) / RFU ORM1 (11744905_x_at) / Fold change /veh ORM1 (11744905_x_at) / RFU CCDC152 (11743942_at) / Fold change /veh CCDC152 (11743942_at) / RFU ECM1 (11717891_a_at) / Fold change /veh ECM1 (11717891_a_at) / RFU IL23R (11748794_a_at) / Fold change /veh IL23R (11748794_a_at) / RFU TNFAIP8L3 (11732012_x_at) / Fold change /veh TNFAIP8L3 (11732012_x_at) / RFU MBOAT4 (11741988_at) / Fold change /veh MBOAT4 (11741988_at) / RFU 11764193_at / Fold change /veh 11764193_at / RFU TMEM53 (11763286_at) / Fold change /veh TMEM53 (11763286_at) / RFU MAGEB2 (11727129_at) / Fold change /veh MAGEB2 (11727129_at) / RFU TMEM200A (11744735_a_at) / Fold change /veh TMEM200A (11744735_a_at) / RFU CCDC152 (11751479_a_at) / Fold change /veh CCDC152 (11751479_a_at) / RFU FAM211A (11726209_a_at) / Fold change /veh FAM211A (11726209_a_at) / RFU RGS16 (11746705_a_at) / Fold change /veh RGS16 (11746705_a_at) / RFU VCAN (11755009_s_at) / Fold change /veh VCAN (11755009_s_at) / RFU RHOB (11743442_s_at) / Fold change /veh RHOB (11743442_s_at) / RFU RGS16 (11720943_a_at) / Fold change /veh RGS16 (11720943_a_at) / RFU RGS16 (11720944_at) / Fold change /veh RGS16 (11720944_at) / RFU, VPS4B / Fold change vs veh, VPS4B / RFU, CREB1 / Fold change vs veh, CREB1 / RFU, DNAJC13 / Fold change vs veh, DNAJC13 / RFU, GNAQ / Fold change vs veh, GNAQ / RFU, CDK5R1 / Fold change vs veh, CDK5R1 / RFU, ZRANB3 / Fold change vs veh, ZRANB3 / RFU, CUL4A / Fold change vs veh, CUL4A / RFU, CCNY / Fold change vs veh, CCNY / RFU, UFL1 / Fold change vs veh, UFL1 / RFU, COG3 / Fold change vs veh, COG3 / RFU, DIAPH2 / Fold change vs veh, DIAPH2 / RFU, SKA2 / Fold change vs veh, SKA2 / RFU, AFF3 / Fold change vs veh, AFF3 / RFU, LMF1 / Fold change vs veh, LMF1 / RFU, IPO11 / Fold change vs veh, IPO11 / RFU, DFFB / Fold change vs veh, DFFB / RFU, FOXP1 / Fold change vs veh, FOXP1 / RFU, CARD8 / Fold change vs veh, CARD8 / RFU, STRN3 / Fold change vs veh, STRN3 / RFU, ADK / Fold change vs veh, ADK / RFU, RASSF2 / Fold change vs veh, RASSF2 / RFU, WIPF1 / Fold change vs veh, WIPF1 / RFU, LARP1B / Fold change vs veh, LARP1B / RFU, RASA1 / Fold change vs veh, RASA1 / RFU, RB1 / Fold change vs veh, RB1 / RFU, PPFIA1 / Fold change vs veh, PPFIA1 / RFU, MAT2A / Fold change vs veh, MAT2A / RFU, CCT5 / Fold change vs veh, CCT5 / RFU, WDR92 / Fold change vs veh, WDR92 / RFU, CUX1 / Fold change vs veh, CUX1 / RFU, TTC7A / Fold change vs veh, TTC7A / RFU, TMEM135 / Fold change vs veh, TMEM135 / RFU, DEPTOR / Fold change vs veh, DEPTOR / RFU, CPM / Fold change vs veh, CPM / RFU, DNAJB6 / Fold change vs veh, DNAJB6 / RFU, CACNA2D3 / Fold change vs veh, CACNA2D3 / RFU, DTX4 / Fold change vs veh, DTX4 / RFU, TFCP2 / Fold change vs veh, TFCP2 / RFU, GMCL1 /// GMCL1P1 / Fold change vs veh, GMCL1 /// GMCL1P1 / RFU, AEBP2 / Fold change vs veh, AEBP2 / RFU, SNHG1 /// SNORD22 /// SNORD25 /// SNORD26 /// SNORD27 /// SNORD28 /// SNORD29 /// SNORD31 / Fold change vs veh, SNHG1 /// SNORD22 /// SNORD25 /// SNORD26 /// SNORD27 /// SNORD28 /// SNORD29 /// SNORD31 / Fold change (Aza/veh), C12orf56 (ProbeSet 11735607_a_at) / Fold change (ACY-1035/veh), C12orf56 (ProbeSet 11735607_a_at) / Fold change (Aza/veh), FGFR1OP (ProbeSet 11751329_s_at) / Fold change (ACY-1035/veh), FGFR1OP (ProbeSet 11751329_s_at) / Fold change (Aza/veh), VPS36 (ProbeSet 11739960_a_at) / Fold change (ACY-1035/veh), VPS36 (ProbeSet 11739960_a_at) / RFU SYPL1 (11715823_x_at) / Fold change /veh SYPL1 (11715823_x_at) / RFU IGFBP7 (11715501_s_at) / Fold change /veh IGFBP7 (11715501_s_at) / RFU REEP3 (11722064_at) / Fold change /veh REEP3 (11722064_at) / RFU IGLL1 (11728026_x_at) / Fold change /veh IGLL1 (11728026_x_at): dose or concentration left out as unconfirmed
Settings: MV-4-11 cells, 48 hours

Nc1ccc(-c2cccs2)cc1NC(=O)c1ccc2c(c1)cc(C1CC1)n2CCN1CCOCC1 [ACY-1035]
RFU RCAN1 (11760418_a_at): 20.19 RFU
